Results reported in patent publication US11964990B2, “1,3,4,7-tetrahydro-2H-pyrrolo[3′,2′:5,6]pyrido[2,3-b][1,4]oxazepine bcl-2 inhibitors” (AbbVie Inc., priority 2022, dated 2024).

What was measured:
Molt-4 cells = assay: Cell viability counter screen assay (CellTiter-Glo) in Molt-4 cells; assay type: cell-based; conditions: 24 hours, 10% Human Serum, 50% decrease in cell viability
Text: (§1) The acute lymphoblastic leukemia (ALL) human cell line RS4;11 (ATCC, Manassas VA) was used as the primary human cell line to assess the cellular activity of compound of the present Examples in vitro and their efficacy in vivo. BH3 profiling, a mitochondrial assay that classifies blocks in the intrinsic apoptotic pathway, has shown that RS4;11 cells were highly dependent on Bcl-2 protein for survival and were sensitive to a Bcl-2 inhibitor (Blood. 2008; 111(4):2300-2309). […] The acute lymphoblastic leukemia cell line Molt-4, which is derived from immature T-lymphoid cells (T-ALL), was used as a counter screen assay.
(§2) Frozen RS4;11 or Molt-4 cells (ATCC, Manassas, VA, USA) were thawed overnight in RPMI 1640 media (Thermo Fisher Scientific, Waltham, MA, USA) supplemented with 1% penicillin/streptomycin (Thermo Fisher Scientific, Waltham, MA, USA), and 10% Human Serum (Sigma, St. Louis, MO, USA). 3000 Cells (0.1×10^6/mL) were seeded in each well of 384-well plate and were treated for 24 hours in a humidified chamber with 5% CO2. Cell viability was determined by CellTiter-Glo as described by the manufacturer's instructions (Promega Corporation, Madison, WI, USA). Responses were determined as a percentage of the control treated cells and the effective concentration (EC50) to induce a 50% decrease in cell viability were determined from sigmoidal dose-response curves using Dotmatics (Dotmatics Software Company, Bishops Stortford, Hertfordshire, England).

RS4;11 cells = assay: Cell viability assay (CellTiter-Glo) in RS4;11 cell line; assay type: cell-based; conditions: 24 hours, 10% Human Serum, 50% decrease in cell viability
Text: as §1, §2

EC50 (RS4;11 cells) [nM]	SMILES	EC50 (Molt-4 cells) [nM]
1.66	CC1(C)CC(c2ccc(Cl)cc2)=C2CN3CCN(c4ccc(C(=O)NS(=O)(=O)c5ccc(NCC6(F)CCN(C7COC7)CC6)c([N+](=O)[O-])c5)c(N5CCCOc6nc7[nH]ccc7cc65)c4)C[C@H]3COCCCO[C@@H]2C1 [Example 39, 4-((4aS,10aR)-14-(4-chlorophenyl)-12,12-dimethyl-1,2,4a,5,8,9,10a,11,13,15-decahydro-7H,12H-benzo[f]pyrazino[2,1-c][1,8]dioxa[4]azacycloundecin-3(4H)-yl)-2-(3,4-dihydro-2H-pyrrolo[3′,2′:5,6]pyrido[2,3-b][1,4]oxazepin-1(7H)-yl)-N-((4-(((4-fluoro-1-(oxetan-3-yl)piperidin-4-yl)methyl)amino)-3-nitrophenyl)sulfonyl)benzamide]	453
5.29	C[C@H]1CC[C@H](CNc2ccc(S(=O)(=O)NC(=O)c3ccc(N4CCN5CC6=C(c7ccc(Cl)cc7)CC(C)(C)C[C@H]6OCCCOC[C@@H]5C4)cc3N3CCCOc4nc5[nH]ccc5cc43)cc2[N+](=O)[O-])OC1 [Example 23, 4-((4aS,10aR)-14-(4-chlorophenyl)-12,12-dimethyl-1,2,4a,5,8,9,10a,11,13,15-decahydro-7H,12H-benzo[f]pyrazino[2,1-c][1,8]dioxa[4]azacycloundecin-3(4H)-yl)-2-(3,4-dihydro-2H-pyrrolo[3′,2′:5,6]pyrido[2,3-h][1,4]oxazepin-1(7H)-yl)-N-((4-((((2R,5S)-5-methyltetrahydro-2H-pyran-2-yl)methyl)amino)-3-nitrophenyl)sulfonyl)benzamide]	> 10000
5.21	C[C@@H]1CO[C@@H](COc2ccc(S(=O)(=O)NC(=O)c3ccc(N4CCN5CC6=C(c7ccc(Cl)cc7)CC(C)(C)C[C@H]6OCCCOC[C@@H]5C4)cc3N3CCCOc4nc5[nH]ccc5cc43)cc2[N+](=O)[O-])CO1 [Example 20, 4-((4aS,10aR)-14-(4-chlorophenyl)-12,12-dimethyl-1,2,4a,5,8,9,10a,11,13,15-decahydro-7H,12H-benzo[f]pyrazino[2,1-c][1,8]dioxa[4]azacycloundecin-3(4H)-yl)-2-(3,4-dihydro-2H-pyrrolo[3′,2′:5,6]pyrido[2,3-b][1,4]oxazepin-1(7H)-yl)-N-((4-(((2R,5R)-5-methyl-1,4-dioxan-2-yl)methoxy)-3-nitrophenyl)sulfonyl)benzamide]	1610
5.46	CC1(C)CC(c2ccc(Cl)cc2)=C2CN3CCN(c4ccc(C(=O)NS(=O)(=O)c5cnc(OCC6(F)CCOCC6)c(Cl)c5)c(N5CCCOc6nc7[nH]ccc7cc65)c4)C[C@H]3COCCCO[C@@H]2C1 [Example 7, N-((5-chloro-6-((4-fluorotetrahydro-2H-pyran-4-yl)methoxy)pyridin-3-yl)sulfonyl)-4-((4aS,10aR)-14-(4-chlorophenyl)-12,12-dimethyl-1,2,4a,5,8,9,10a,11,13,15-decahydro-7H,12H-benzo[f]pyrazino[2,1-c][1,8]dioxa[4]azacycloundecin-3(4H)-yl)-2-(3,4-dihydro-2H-pyrrolo[3′,2′:5,6]pyrido[2,3-b][1,4]oxazepin-1(7H)-yl)benzamide]	> 10000
0.881	CC1(C)CC(c2ccc(Cl)cc2)=C2CN3CCN(c4ccc(C(=O)NS(=O)(=O)c5ccc(OCC6(F)CCN(C7COC7)CC6)c([N+](=O)[O-])c5)c(N5CCCOc6nc7[nH]ccc7cc65)c4)C[C@H]3COCCCO[C@@H]2C1 [Example 19, 4-((4aS,10aR)-14-(4-chlorophenyl)-12,12-dimethyl-1,2,4a,5,8,9,10a,11,13,15-decahydro-7H,12H-benzo[f]pyrazino[2,1-c][1,8]dioxa[4]azacycloundecin-3(4H)-yl)-2-(3,4-dihydro-2H-pyrrolo[3′,2′:5,6]pyrido[2,3-b][1,4]oxazepin-1(7H)-yl)-N-((4-((4-fluoro-1-(oxetan-3-yl)piperidin-4-yl)methoxy)-3-nitrophenyl)sulfonyl)benzamide]	132
2.78	COCCN1CCC(F)(COc2ncc(S(=O)(=O)NC(=O)c3ccc(N4CCN5CC6=C(c7ccc(Cl)cc7)CC(C)(C)C[C@H]6OCCCOC[C@@H]5C4)cc3N3CCCOc4nc5[nH]ccc5cc43)cc2Cl)CC1 [Example 22, N-((5-chloro-6-((4-fluoro-1-(2-methoxyethyl)piperidin-4-yl)methoxy)pyridin-3-yl)sulfonyl)-4-((4aS,10aR)-14-(4-chlorophenyl)-12,12-dimethyl-1,2,4a,5,8,9,10a,11,13,15-decahydro-7H,12H-benzo[f]pyrazino[2,1-c][1,8]dioxa[4]azacycloundecin-3(4H)-yl)-2-(3,4-dihydro-2H-pyrrolo[3′,2′:5,6]pyrido[2,3-b][1,4]oxazepin-1(7H)-yl)benzamide]	755
1.97	COC1CO[C@H](CNc2ccc(S(=O)(=O)NC(=O)c3ccc(N4CCN5CC6=C(c7ccc(Cl)cc7)CC(C)(C)C[C@H]6OCCCOC[C@@H]5C4)cc3N3CCCOc4nc5[nH]ccc5cc43)cc2[N+](=O)[O-])C1 (stereo partly drawn) [Example 29, 4-((4aS,10aR)-14-(4-chlorophenyl)-12,12-dimethyl-1,2,4a,5,8,9,10a,11,13,15-decahydro-7H,12H-benzo[f]pyrazino[2,1-c][1,8]dioxa[4]azacycloundecin-3(4H)-yl)-2-(3,4-dihydro-2H-pyrrolo[3′,2′:5,6]pyrido[2,3-b][1,4]oxazepin-1(7H)-yl)-N-((4-((((2S)-4-methoxytetrahydrofuran-2-yl)methyl)amino)-3-nitrophenyl)sulfonyl)benzamide]	1890
3.73	CC1(C)CC(c2ccc(Cl)cc2)=C2CN3CCN(c4ccc(C(=O)NS(=O)(=O)c5cnc(OC[C@]6(F)CC[C@@H](N7CCOCC7)CC6)c(Cl)c5)c(N5CCCOc6nc7[nH]ccc7cc65)c4)C[C@H]3COCCCO[C@@H]2C1 [Example 10, N-((5-chloro-6-(((1s,4s)-1-fluoro-4-morpholinocyclohexyl)methoxy)pyridin-3-yl)sulfonyl)-4-((4aS,10aR)-14-(4-chlorophenyl)-12,12-dimethyl-1,2,4a,5,8,9,10a,11,13,15-decahydro-7H,12H-benzo[f]pyrazino[2,1-c][1,8]dioxa[4]azacycloundecin-3(4H)-yl)-2-(3,4-dihydro-2H-pyrrolo[3′,2′:5,6]pyrido[2,3-b][1,4]oxazepin-1(7H)-yl)benzamide]	1560
2.35	CC1(C)CC(c2ccc(Cl)cc2)=C2CN3CCN(c4ccc(C(=O)NS(=O)(=O)c5cnc(OCC6(F)CCN(C7COC7)CC6)c(Cl)c5)c(N5CCCOc6nc7[nH]ccc7cc65)c4)C[C@H]3COCCCO[C@@H]2C1 [Example 4, N-((5-chloro-6-((4-fluoro-1-(oxetan-3-yl)piperidin-4-yl)methoxy)pyridin-3-yl)sulfonyl)-4-((4aS,10aR)-14-(4-chlorophenyl)-12,12-dimethyl-1,2,4a,5,8,9,10a,11,13,15-decahydro-7H,12H-benzo[f]pyrazino[2,1-c][1,8]dioxa[4]azacycloundecin-3(4H)-yl)-2-(3,4-dihydro-2H-pyrrolo[3′,2′:5,6]pyrido[2,3-b][1,4]oxazepin-1(7H)-yl)benzamide]	2000
24.5	CO[C@H]1CC[C@H](COc2ccc(S(=O)(=O)NC(=O)c3ccc(N4CCN5CC6=C(c7ccc(Cl)cc7)CC(C)(C)C[C@H]6OCCCOC[C@@H]5C4)cc3N3CCCOc4nc5[nH]ccc5cc43)cc2Cl)OC1 [Example 40, N-((3-chloro-4-(((2R,5S)-5-methoxytetrahydro-2H-pyran-2-yl)methoxy)phenyl)sulfonyl)-4-((4aS,10aR)-14-(4-chlorophenyl)-12,12-dimethyl-1,2,4a,5,8,9,10a,11,13,15-decahydro-7H,12H-benzo[f]pyrazino[2,1-c][1,8]dioxa[4]azacycloundecin-3(4H)-yl)-2-(3,4-dihydro-2H-pyrrolo[3′,2′:5,6]pyrido[2,3-b][1,4]oxazepin-1(7H)-yl)benzamide]	> 10000

SMILES	EC50 (RS4;11 cells) [nM]	EC50 (Molt-4 cells) [nM]
CC1(C)CC(c2ccc(Cl)cc2)=C2CN3CCN(c4ccc(C(=O)NS(=O)(=O)c5ccc(NC[C@H]6CC[C@H](N7CCOCC7)CO6)c([N+](=O)[O-])c5)c(N5CCCOc6nc7[nH]ccc7cc65)c4)C[C@H]3COCCCO[C@@H]2C1 [Example 37, 4-((4aS,10aR)-14-(4-chlorophenyl)-12,12-dimethyl-1,2,4a,5,8,9,10a,11,13,15-decahydro-7H,12H-benzo[f]pyrazino[2,1-c][1,8]dioxa[4]azacycloundecin-3(4H)-yl)-2-(3,4-dihydro-2H-pyrrolo[3′,2′:5,6]pyrido[2,3-b][1,4]oxazepin-1(7H)-yl)-N-((4-((((2R,5S)-5-morpholinotetrahydro-2H-pyran-2-yl)methyl)amino)-3-nitrophenyl)sulfonyl)benzamide]	1.05	1450
CC1(C)CC(c2ccc(Cl)cc2)=C2CN3CCN(c4ccc(C(=O)NS(=O)(=O)c5ccc(OC[C@H]6CC[C@@](C)(O)CC6)c([N+](=O)[O-])c5)c(N5CCCOc6nc7[nH]ccc7cc65)c4)C[C@H]3COCCCO[C@@H]2C1 [Example 49, 4-((4aS,10aR)-14-(4-chlorophenyl)-12,12-dimethyl-1,2,4a,5,8,9,10a,11,13,15-decahydro-7H,12H-benzo[f]pyrazino[2,1-c][1,8]dioxa[4]azacycloundecin-3(4H)-yl)-2-(3,4-dihydro-2H-pyrrolo[3′,2′:5,6]pyrido[2,3-b][1,4]oxazepin-1(7H)-yl)-N-((4-(((1s,4s)-4-hydroxy-4-methylcyclohexyl)methoxy)-3-nitrophenyl)sulfonyl)benzamide]	25	36
